For one series, the system named is AChE. The note with it: Jameel et al.; read-out: AChE inhibition IC50; cited from earlier work.
Series [1] has as its target T1, AChE (from electrophorus electricus) (Electrophorus electricus, UniProt O42275).
T1 construct: purchased Sigma-Aldrich C3389
Put plainly: In vitro AChE inhibition, Ellman's colorimetric method. The class given is biochemical.

The target of series [2] is T2, BACE1 (from equine serum) (Homo sapiens, UniProt P56817).
T2 construct: purchased Sigma-Aldrich CS0010
Put plainly: In vitro BACE1 inhibition, FRET assay. Type of series: biochemical.

Series [3] relates to BACE1. To be noted: Yazdani et al.; cited from earlier work.
In the next series the test system is GSK-3β. To be noted: in vitro; cited from earlier work.
The next series concerns BACE-1. The note with it: in vitro; cited from earlier work.
For series [4] the following is noted: cell-based assays; cited from earlier work.
Series [5] deals with BACE1. The note with it: Iraji et al.; cited from earlier work.
Where [6] appears, read: mean ± SD of three independent experiments, read-out: BACE1 IC50.

Consider 15 compounds from paper PMC8271926, “1,3,5-Triazine Nitrogen Mustards with Different Peptide Group as Innovative Candidates for AChE and BACE1 Inhibitors” (Molecules, 2021).

Where two headings read alike, the source gives them in different places.

T2 sequence (P56817 46-457 limits assumed): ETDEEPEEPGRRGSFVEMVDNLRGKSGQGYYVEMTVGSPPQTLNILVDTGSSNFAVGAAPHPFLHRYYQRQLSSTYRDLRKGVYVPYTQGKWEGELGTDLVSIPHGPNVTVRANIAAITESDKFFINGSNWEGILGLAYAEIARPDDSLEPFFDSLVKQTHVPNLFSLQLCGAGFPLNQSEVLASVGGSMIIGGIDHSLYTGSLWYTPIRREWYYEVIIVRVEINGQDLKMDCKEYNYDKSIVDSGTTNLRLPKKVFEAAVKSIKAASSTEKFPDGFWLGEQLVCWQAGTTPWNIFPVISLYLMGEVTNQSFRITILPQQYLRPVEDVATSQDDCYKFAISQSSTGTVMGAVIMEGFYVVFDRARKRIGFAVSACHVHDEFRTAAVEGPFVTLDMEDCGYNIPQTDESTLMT
T1 sequence (O42275 24-633): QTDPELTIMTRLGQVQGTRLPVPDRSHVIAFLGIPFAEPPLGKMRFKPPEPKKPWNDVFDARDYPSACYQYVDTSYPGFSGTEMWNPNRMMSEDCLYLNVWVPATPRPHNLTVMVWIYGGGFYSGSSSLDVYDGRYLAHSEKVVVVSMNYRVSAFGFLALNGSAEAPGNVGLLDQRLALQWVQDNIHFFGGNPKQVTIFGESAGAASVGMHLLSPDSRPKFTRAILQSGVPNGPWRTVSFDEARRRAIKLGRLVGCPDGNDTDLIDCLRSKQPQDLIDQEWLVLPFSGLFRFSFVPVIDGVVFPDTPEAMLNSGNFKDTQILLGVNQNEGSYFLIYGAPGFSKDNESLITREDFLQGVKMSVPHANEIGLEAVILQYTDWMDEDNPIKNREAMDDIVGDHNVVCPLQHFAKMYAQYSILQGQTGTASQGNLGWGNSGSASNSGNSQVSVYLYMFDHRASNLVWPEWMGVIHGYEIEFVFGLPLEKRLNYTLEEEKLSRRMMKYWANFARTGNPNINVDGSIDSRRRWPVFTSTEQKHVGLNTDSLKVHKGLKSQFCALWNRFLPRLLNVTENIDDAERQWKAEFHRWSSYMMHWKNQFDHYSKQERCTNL

`COc1ccc(Nc2nc(Cl)nc(N3CCN(c4cc(C)nc5ccnn45)CC3)n2)cc1` [D]: in the series on AChE, the IC50 was 0.092 µM.
With `COC(=O)C(C)NC(=O)C(CC(=O)OC(C)(C)C)Nc1nc(OC)nc(N2CCN(CCCl)CC2)n1` (stereo not drawn) [4b, 2-[4-(2-Chloroethyl)Piperazin-1-yl]-4-Methoxy-6-(NH-Asp(OtBu)-Ala-OMe)-1,3,5-Triazine], the figures for the IC50 in series [1] and in series [2] (setting [6]) were 0.065 ± 0.002 µM and 33.8 ± 3.91 µM, respectively.
Taken in the same sequence, the figures for `COC(=O)C(C)NC(=O)C(Cc1c[nH]c2ccccc12)Nc1nc(OC)nc(N2CCN(CCCl)CC2)n1` (stereo not drawn) [4g, 2-[4-(2-Chloroethyl)Piperazin-1-yl]-4-Methoxy-6-(NH-Trp-Ala-OMe)- 1,3,5- Triazine] were 0.122 ± 0.014 µM and 28.1 ± 3.69 µM.
With `COC(=O)C(C)NC(=O)C(C)(C)Nc1nc(OC)nc(N2CCN(CCCl)CC2)n1` (stereo not drawn) [4e, 2-[4-(2-Chloroethyl)Piperazin-1-yl]-4-Methoxy-6-(NH-Aib-Ala-OMe) -1,3,5 -Triazine], the half-maximal inhibitory concentration (IC50) in series [1] was found to be 0.789 ± 0.031 µM; in series [2] (setting [6]), 51 ± 7.99 µM.
Taken in the same sequence, the figures for `COC(=O)C(C)NC(=O)C(CCCCNC(=O)OC(C)(C)C)Nc1nc(OC)nc(N2CCN(CCCl)CC2)n1` (stereo not drawn) [4a, 2-[4-(2-Chloroethyl)Piperazin-1-yl]-4-Methoxy-6-(NH-Lys(Boc)-Ala -OMe)-1,3,5-Triazine] were 0.055 ± 0.001 µM and 11.1 ± 2.29 µM.
In the case of `Clc1ccc(Cn2cc(COc3ccc(/C=N/Nc4nnc(-c5ccccc5)c(-c5ccccc5)n4)cc3)nn2)cc1` [F], in the series on BACE1 [3], the IC50 is 8.55 ± 3.37 µM.
As for `COC(=O)C(C)NC(=O)C(Cc1cn(C(=O)OC(C)(C)C)c2ccccc12)Nc1nc(OC)nc(N2CCN(CCCl)CC2)n1` (stereo not drawn) [4c, 2-[4-(2-Chloroethyl)Piperazin-1-yl]-4-Methoxy-6-(NH-Trp(Boc)-Ala-OMe)-1,3,5-Triazine], the values for the IC50 in series [1] and in series [2] (setting [6]) were 0.114 ± 0.012 µM and 18.1 ± 2.69 µM, respectively.
With `Cc1cccc(Nc2nc(Cl)nc(N3CCN(c4cc(C)nc5ccnn45)CC3)n2)c1` [C], the IC50 in the series with AChE was 0.065 µM.
On to `NC1=NC(c2ccc(F)cc2)NC(=O)N1` (stereo not drawn) [E], for which the IC50 in the series with GSK-3β was 14.7 ± 0.78 µM. Moreover, the IC50 with BACE-1 is 18.03 ± 0.01 µM. In series [4], the “neuroprotective and neurogenic activities” value is reported as “effective”; the neurotoxicity entry is “no neurotoxicity”.
For the compound `COC(=O)C(C)NC(=O)C(COCc1ccccc1)Nc1nc(OC)nc(N2CCN(CCCl)CC2)n1` (stereo not drawn) [4d, 2-[4-(2-Chloroethyl)Piperazin-1-yl]-4-Methoxy-6-(NH-Ser (Bn)-Ala -OMe) -1,3,5-Triazine], the IC50 is 0.387 ± 0.054 µM in series [1] and 58.1 ± 9.69 µM in series [2] (setting [6]).
Turning to `Oc1ccc(/C=N/Nc2nnc(-c3cccs3)c(-c3cccs3)n2)c(O)c1` [H], in the series with BACE1 [5], the IC50 is 0.91 µM.
For `COC(=O)C(C)NC(=O)C(CCCNC(=N)N[N+](=O)[O-])Nc1nc(OC)nc(N2CCN(CCCl)CC2)n1` (stereo not drawn) [4f, 2-[4-(2-Chloroethyl)Piperazin-1-yl]-4-Methoxy-6-(NH-Arg(NO2)-Ala-OMe) -1,3,5-Triazine], the results for the IC50 in series [1] and in series [2] (setting [6]) were 1.44 ± 0.029 µM and 52 ± 8.55 µM, respectively.
`O=[N+]([O-])c1ccc(Cn2cc(COc3ccc(/C=N/Nc4nnc(-c5ccccc5)c(-c5ccccc5)n4)cc3)nn2)cc1` [G]: the IC50 in the series on BACE1 [3] is 11.4 ± 2.01 µM.
As for `ClCCN1CCN(c2nc(Nc3ccccc3)nc(N3CCN(CCCl)CC3)n2)CC1` [A], the figures for the 50% inhibitory concentration (IC50) in series [1] and in series [2] (setting [6]) were 0.051 ± 0.001 µM and 9 ± 0.22 µM, respectively.
In the case of `COC(=O)C(C)NC(=O)C(Cc1cn(S(=O)(=O)c2ccc(C)cc2)cn1)Nc1nc(OC)nc(N2CCN(CCCl)CC2)n1` (stereo not drawn) [4h, 2-[4-(2-Chloroethyl)Piperazin-1-yl]-4-Methoxy-6-(NH-His(Ts)-Ala-OMe)-1,3,5-Triazine], the IC50 in series [1] (read-out: AChE IC50, AChE from electric eel, Ellman's method, mean ± SD of three independent experiments) was 0.067 ± 0.003 µM; in series [2] (read-out: BACE1 IC50, mean ± SD of three independent experiments) it was 14.2 ± 3.45 µM.
